Source: patent US20030113281A1, “Assay for identification of compounds that promote melanin production and retinoid-like compounds identified by said assay” (Galderma Research & Development, S.N.C., priority 1998, published 2003)

Tested on: normal human melanocytes
Assay: Melanin content of normal human melanocytes, normalized to proliferation (MTS)
Assay type: cell-based
Conditions: 5 day treatment, normal human melanocytes from neonatal skin
Description: Normal human melanocytes from neonatal skin were used for the assay. For the primary screening, the cells were seeded simultaneously into 96-well plates and 24-well plates appropriately according to the surface area of the wells, and treated with the test compound for 5 days. The addition of the compound to the plates was done using a Robot to ensure accuracy (same amount in each well). At the end of 5 day treatment, the cells in the 96-well plate were treated with MTS solution and the plate was read at 490 nm to determine the effect of the compounds on the growth of the cells. The cells in the 24-well plates were rinsed with PBS, and then lysed with 1N NaOH, and the absorbence of alkali soluble melanin was measured at 405 nm.
The data from the 96-well plate was analyzed to determine the effect of each compound on the proliferation of the cells, and the data from the 24-well plate was used to determine the effect of the compound on the melanin content of the cells. The melanin content was then normalized to the proliferation of the cells.

C=C(c1ccc(C(=O)O)cc1)c1ccc2c(c1)C(C)(C)CCC2(C)C [CD No. 2771, 4-[1-(5,6.7,8-tetrahydro-5,5,8,8-tetramethyl-2-naphthyl)ethenyl]benzoic acid]
Maximum Increase in Melanin Content (Normalized) (at 2 μM): 250% at 2 μM

Cc1cc2c(cc1-c1cccc(C=CC(=O)O)c1)C(C)(C)CCC2(C)C [CD No. 2915, 3-[3-(3,5,5,8,8-pentamethyl-5.6,7.8-tetrahydro-naphthalen-2-yl)-phenyl]-acrylic acid]
Maximum Increase in Melanin Content (Normalized) (at 0.1 μM): 165% at 0.1 μM

CC(=CC(=O)O)c1cccc(-c2cc3c(cc2C)C(C)(C)CCC3(C)C)c1 [CD No. 3206, 3-[3-(3,5.5,8,8-pentamethyl-5,6,7,8-tetrahydro-naphthalen-2-yl)-phenyl]-but-2-enoic acid]
Maximum Increase in Melanin Content (Normalized) (at 0.5 μM): 198% at 0.5 μM
